Results taken from US20040052828A1, “Consumable product including consumable component and alpha-keto enamine derivatives” (priority 2000, published 2004).

How the values were obtained:
Type in all cases: in vivo, human
[1] = system: trained panelists; experiment: Cooling threshold in water, triangle test by trained panelists; conditions: determined in water
Method: Prior to sensory analysis, the purity of the synthetic taste compounds was checked by GC/MS. Determination of the cooling, as well as the aroma threshold, of the compounds was performed by trained panelists. Nasal odor thresholds (Guth, H.; Grosch, W. J. Am. Oil Chem. Soc. 1993, 70, 513-518), as well as cooling thresholds, were determined by triangle tests using tap water as the solvent. The samples were presented in order of increasing concentrations and the threshold values evaluated in three separate sessions were averaged. The values between individuals and separate sessions differed by not more than one dilution step.

[2] = Tasting of cooling compounds in Vittel mineral water
Method: Solutions of 10%-menthol, 10% 5-MPC and 10% MPF, respectively, in ethanol were diluted with Vittel™ mineral water. The solutions were tasted and compared with pure Vittel™ water.

[3] = system: mouth cavity; experiment: Evaluation of cooling substances in orange juice
Method: Several cooling substances were evaluated in orange juice.

[4] = Cooling threshold in milk chocolate; conditions: for Cooling effect [mg/100 g chocolate]: cooling threshold in milk chocolate
Text: In an additional experiment, the cooling thresholds of 3-MPC, 5-MPC, MPF, 2(5H)-MPF and 2(5H)-DMPF have been determined in chocolate. […] The ratio for compounds of the invention is typically less than that of menthol, preferably less than 9, more preferably less than about 3. In other embodiments, the cooling threshold to odor threshold ratio is less than about 1 or less than about 0.1.

[5] = system: skin surface on the inside of the right forearm; experiment: Topical testing of cooling intensity on the forearm; conditions: scale 0 (no effect) to 5 (very strong)
Method: Topical thresholds of cooling compounds 5-MPF, 2(5H)-DMPF, 2(5H)-MPF and MPF were determined as follows: An aliquot (0.5 mL) of a solution, […], was applied to a circular area (10 cm^2) of the skin surface on the inside of the right forearm, midway between the wrist and the elbow, and were rubbed for 1 min. In parallel, an aliquot (0.5 mL) of pure tap water was applied as the blank onto the skin of the left forearm. After 1 min, the skin was dried. A panel of 10 subjects (male and female) were asked to rank the cooling intensity on a scale from 0 (no effect) to 5 (very strong). The values evaluated in three different sessions at two days were averaged. The values between individuals and separate sessions differed not more than 2 scores.

[6] = system: mouth; experiment: Taste testing of sugar confectionery (candies)
Method: Sugar (100 g) was heated together with water (15 g) in a beaker on a hot plate. After the mixture became a clear solution, the sugar syrup was heated further until it became viscous due to the evaporation of water. Then 5-MPC (20 mg) and MPF (100 mg), respectively, were added. The viscous liquid was then poured into molds (3 g each) and cooled down to room temperature. The candies, which had been formed in the molds, were demolded and used for taste testing.

[7] = Application in ice cream; conditions: 20 mg/kg in ice cream
Method: Full-fat cream (250 g), milk (250 ml) and sugar (100 g) were mixed and stirred until the sugar was dissolved. Then the mixture was poured into an ice cream machine (Il Gelataio Super, Simac Inc., Gessate, Italy) and frozen within 30 minutes while stirring. In the same way, ice cream was prepared with 5-MPC (20 mg/kg). […] The cool refreshing impression of this ice cream persisted much longer than with the unflavored reference compound.

SMILES: CC1CCC(C(C)C)C(O)C1 (single isomer, unassigned; (-)) [(−)-Menthol, reference compound]
- Cooling threshold [1]: 0.9 to 1.9 mg/kg
- Flavor: cooling effect ([2]; 10 mg/L in Vittel mineral water): Pronounced cooling effect, strong
- cooling effect ([3]; 20 mg/L in orange juice): strong cooling effect

SMILES: CC1=C(N2CCCC2)C(=O)OC1C (stereo not drawn) [2(5H)-DMPF, 4,5-Dimethyl-3-(1-pyrrolidinyl)-2(5H)-furanone]
- Cooling threshold [1]: 2.0 to 4.0 mg/kg
- Cooling effect [mg/100 g chocolate] [4]: 5.0-7.5 mg/100 g chocolate
- Cooling intensity ([5]; 0.00625 % in tap water): 0
- Cooling intensity ([5]; 0.0125 % in tap water): 1
- Cooling intensity ([5]; 0.025 % in tap water): 3
- Cooling intensity ([5]; 0.05 % in tap water): 5
- Cooling intensity ([5]; 0.1 % in tap water): 5
- Cooling intensity ([5]; 0.2 % in tap water): 5
- Cooling intensity ([5]; 0.5 % in tap water): 5
- Cooling intensity ([5]; 1.0 % in tap water): 5

SMILES: CC1=C(N2CCCC2)C(=O)OC1 [2(5H)-MPF, 4-Methyl-3-(1-pyrrolidinyl)-2(5H)-furanone]
- Cooling threshold [1]: 0.02 to 0.06 mg/kg
- Cooling effect [mg/100 g chocolate] [4]: 0.25-0.5 mg/100 g chocolate
- Cooling intensity ([5]; 0.00020 % in tap water): 0
- Cooling intensity ([5]; 0.00039 % in tap water): 1
- Cooling intensity ([5]; 0.00078 % in tap water): 2
- Cooling intensity ([5]; 0.00156 % in tap water): 3
- Cooling intensity ([5]; 0.00313 % in tap water): 5
- Cooling intensity ([5]; 0.00625 % in tap water): 5

SMILES: CC1=C(N2CCCC2)C(=O)CC1C (stereo not drawn) [3,4-DMPC, 3,4-Dimethyl-2-(1-pyrrolidinyl)-2-cyclopenten-1-one]
- Cooling threshold [1]: 51 to 86 mg/kg

SMILES: CC1=C(N2CCCC2)C(=O)C(C)C1 (stereo not drawn) [3,5-DMPC, 3,5-Dimethyl-2-(1-pyrrolidinyl)-2-cyclopenten-1-one]
- Cooling threshold [1]: 33 to 54 mg/kg

SMILES: CC1=C(N2CCCC2)C(=O)CC1 [3-MPC, 3-Methyl-2-(1-pyrrolidinyl)-2-cyclopenten-1-one]
- Cooling threshold [1]: 29 to 44 mg/kg
- Cooling effect [mg/100 g chocolate] [4]: 38-63 mg/100 g chocolate

SMILES: CC1=C(N2CCCC2)C(=O)CCC1 [3-MPCH, 3-Methyl-2-(1-pyrrolidinyl)-2-cyclohexen-1-one]
- Cooling threshold [1]: 90 to 150 mg/kg

SMILES: CC1=C(N2CCCCC2)C(=O)CC1 [3-MPipC, 3-Methyl-2-(1-piperidinyl)-2-cyclopenten-1-one]
- Cooling threshold [1]: 60 to 100 mg/kg

SMILES: CC1=C(N2CCCC2C(=O)O)C(=O)CC1 (stereo not drawn) [3-MProC, 3-Methyl-2-(2-carboxy-1-pyrrolidinyl)-2-cyclopentene-1-one]
- Cooling threshold [1]: 490 to 735 mg/kg

SMILES: CC1C=C(N2CCCC2)C(=O)C1C (stereo not drawn) [4,5-DMPC, 4,5-Dimethyl-2-(1-pyrrolidinyl)-2-cyclopenten-1-one]
- Cooling threshold [1]: 68 to 113 mg/kg

SMILES: CCC1CC=C(N2CCCC2)C1=O (stereo not drawn) [5-EPC, 5-Ethyl-2-(1-pyrrolidinyl)-2-cyclopenten-1-one]
- Cooling threshold [1]: 27 to 43 mg/kg

SMILES: COC(=O)C1CCCN1C1=CCC(C)C1=O (stereo not drawn) [5-MMeproC, 5-Methyl-2-(2-methoxycarbonyl-1-pyrrolidinyl)-2-cyclopentene-1-one]
- Cooling threshold [1]: 112 to 188 mg/kg

SMILES: CC1CC=C(N2CCCC2)C1=O (stereo not drawn) [5-MPC, 5-Methyl-2-(1-pyrrolidinyl)-2-cyclopenten-1-one]
- Cooling threshold [1]: 4.5 to 9 mg/kg
- Cooling effect [mg/100 g chocolate] [4]: 2.3-3.7 mg/100 g chocolate
- fold higher cooling threshold than 2(5H)-MPF ([4]; in chocolate, compared with 2(5H)-MPF): 8 fold
- cooling effect ([3]; 200 mg/L in orange juice): strong cooling effect
- cooling effect in the mouth ([6]; 20 mg added to syrup of 100 g sugar): pronounced cooling effect
- cooling effect [7]: pronounced long lasting cooling effect
- Cooling intensity ([5]; 0.00020 % in tap water): 0
- Cooling intensity ([5]; 0.00039 % in tap water): 0
- Cooling intensity ([5]; 0.00078 % in tap water): 0
- Cooling intensity ([5]; 0.00156 % in tap water): 0
- Cooling intensity ([5]; 0.00313 % in tap water): 0
- Cooling intensity ([5]; 0.00625 % in tap water): 0
- Cooling intensity ([5]; 0.0125 % in tap water): 0
- Cooling intensity ([5]; 0.025 % in tap water): 0
- Cooling intensity ([5]; 0.05 % in tap water): 0
- Cooling intensity ([5]; 0.1 % in tap water): 0
- Cooling intensity ([5]; 0.2 % in tap water): 1
- Cooling intensity ([5]; 0.5 % in tap water): 3
- Cooling intensity ([5]; 1.0 % in tap water): 5

SMILES: CCN(CC)C1=CCC(C)C1=O (stereo not drawn) [5-MdeaC, 5-Methyl-2-diethylamino-2-cyclopenten-1-one]
- Cooling threshold [1]: 12 to 20 mg/kg

SMILES: CC1CC=C(N2CCCCC2)C1=O (stereo not drawn) [5-MpipC, 5-Methyl-2-(1-piperidinyl)-2-cyclopenten-1-one]
- Cooling threshold [1]: 16 to 24 mg/kg

SMILES: CC1CCC=C(N2CCCC2)C1=O (stereo not drawn) [6-MPCH, 6-Methyl-2-(1-pyrrolidinyl)-2-cyclohexen-1-one]
- Cooling threshold [1]: 27 to 45 mg/kg

SMILES: CC1=C(N2CCCC2)C(=O)C(C)O1 (stereo not drawn) [DMPF, 2,5-Dimethyl-4-(1-pyrrolidinyl)-3(2H)-furanone]
- Cooling threshold [1]: 100 to 140 mg/kg

SMILES: CC1=C(N2CCCC2)C(=O)CO1 [MPF, 5-Methyl-4-(1-pyrrolidinyl)-3(2H)-furanone]
- Cooling threshold [1]: 1.5 to 3.0 mg/kg
- Cooling effect [mg/100 g chocolate] [4]: 0.8-1.5 mg/100 g chocolate
- Flavor: cooling effect ([2]; 400 mg/L in Vittel mineral water): Pronounced cooling effect
- cooling effect ([3]; 1000 mg/L in orange juice): pronounced cooling effect
- cooling effect in the mouth ([6]; 100 mg added to syrup of 100 g sugar): pronounced cooling effect
- Cooling intensity ([5]; 0.00020 % in tap water): 0
- Cooling intensity ([5]; 0.00039 % in tap water): 0
- Cooling intensity ([5]; 0.00078 % in tap water): 0
- Cooling intensity ([5]; 0.00156 % in tap water): 0
- Cooling intensity ([5]; 0.00313 % in tap water): 0
- Cooling intensity ([5]; 0.00625 % in tap water): 0
- Cooling intensity ([5]; 0.0125 % in tap water): 0
- Cooling intensity ([5]; 0.025 % in tap water): 0
- Cooling intensity ([5]; 0.05 % in tap water): 1
- Cooling intensity ([5]; 0.1 % in tap water): 2
- Cooling intensity ([5]; 0.2 % in tap water): 4
- Cooling intensity ([5]; 0.5 % in tap water): 5
- Cooling intensity ([5]; 1.0 % in tap water): 5
